# Literature values in article PMC10726920 (Cancer Medicine, 2023).
# What was measured:
# r/r ALL = system: r/r ALL; set-up: method as in PMID 25724525; settings: combined with Hyper‐CVAD; cited from earlier work
# ALL at first relapse = system: ALL at first relapse; set-up: method as in PMID 29603593; settings: cited from earlier work
# [1] = system: r/r ALL in second relapse or greater; settings: added to intensive chemotherapy, cited from earlier work
# r/r pediatric ALL = settings: with cyclophosphamide, etoposide, cited from earlier work
# lymphoid neoplasms = system: lymphoid neoplasms; set-up: method as in PMID 22080480; settings: cited from earlier work
compound,measurement,setting,value
CO[C@H]1C[C@@H]2CC[C@@H](C)[C@@](O)(O2)C(=O)C(=O)N2CCCC[C@H]2C(=O)O[C@H]([C@H](C)C[C@@H]2CC[C@@H](OCCO)[C@H](OC)C2)CC(=O)[C@H](C)/C=C(\C)[C@@H](O)[C@@H](OC)C(=O)[C@H](C)C[C@H](C)/C=C/C=C/C=C/1C [Everolimus],CR or CRi in patients with only one prior line of therapy,r/r ALL,Six of 11
same,dose‐limiting toxicity,r/r ALL,G3 mucositis
same,overall response rate,r/r ALL,33%
same,patients with meningitis,"ALL at first relapse; dose level 3, Two out of twelve",17%
same,patients obtaining remission (CR2),"ALL at first relapse; with multi‐agent chemotherapy, Nineteen of 22",86%
same,DLT,ALL at first relapse; with multi‐agent chemotherapy,elevated liver enzymes in one patient
CO[C@H]1C[C@@H]2CC[C@@H](C)[C@@](O)(O2)C(=O)C(=O)N2CCCC[C@H]2C(=O)O[C@H]([C@H](C)C[C@@H]2CC[C@@H](OC(=O)C(C)(CO)CO)[C@H](OC)C2)CC(=O)[C@H](C)/C=C(\C)[C@@H](O)[C@@H](OC)C(=O)[C@H](C)C[C@H](C)/C=C/C=C/C=C/1C [temsirolimus],patients achieving remission,[1]; Seven of 15,47%
same,patients with minimal residual disease <0.01%,[1]; three patients,20%
same,overall response rate,r/r pediatric ALL; 15 patients,47%
same,CR or CRi,r/r pediatric ALL,26%
COc1cccc2cc(-c3nc([C@H]4CC[C@H](C(=O)O)CC4)n4ncnc(N)c34)[nH]c12 [OSI‐027],sensitivity of ALL across a series of lymphoid neoplasms,lymphoid neoplasms,most sensitive
